Key:
Format in all cases: in vivo
Galinsoga parviflora = assay: Weed foliar treatment test (Test Example 4); conditions: 10 g a.i./10 a; foliar spray at 4.0 to 5.0 leaf stage of Digitaria ciliaris (plant height 10 cm to 15 cm); 20 days, 25° C.
Experimental: (§1) 4. Weed Foliar Treatment Test
(§2) Field soil was filled into a 1/4500 are pot followed by seeding with Digitaria ciliaris and Galinsoga parviflora, covering with soil and cultivating in a glass greenhouse at an average atmospheric temperature of 25° C.
(§3) Wettable powders of Target Compound (I) shown in Table 1 prepared in compliance with the preparation examples were diluted with water to the prescribed amount of chemical and uniformly sprayed onto the weeds using 100 liters of sprayed water per 10 are when Digitaria ciliaris had grown to the 4.0 to 5.0 leaf stage (plant height: 10 cm to 15 cm).
(§4) After treating for 20 days in a glass greenhouse at an average atmospheric temperature of 25° C., the herbicidal efficacy thereof was investigated.
(§5) Evaluation of herbicidal efficacy was carried out in the same manner as the above-mentioned Test Example 1.

Digitaria ciliaris [1] = assay: Weed foliar treatment test (Test Example 4); conditions: 10 g a.i./10 a; foliar spray at 4.0 to 5.0 leaf stage of Digitaria ciliaris (plant height 10 cm to 15 cm); 20 days, 25° C.
Experimental: as §1, §2, §3, §4, §5

Oryza sativa = assay: Paddy herbicidal activity test, phytotoxicity to transplanted rice; conditions: rice transplanted in the 2.0 leaf stage, 30 days, 30° C., vs complete eradication group
Experimental: (§6) 1. Paddy Herbicidal Activity Test
(§7) Rice paddy soil was filled into a 1/10000 are pot followed by the addition of suitable amounts of water and chemical fertilizer, kneading, seeding with Echinochloa crus-galli, Monochoria vaginalis and Scirpus juncoides and maintaining in an irrigated state at a water depth of 3 cm.
(§8) Wettable powders of Target Compound (I) shown in Table 1 prepared in compliance with the preparation examples were diluted with a suitable amount of water, rice plants in the 2.0 leaf stage were transplanted during 3.5 leaf stage of Echinochloa crus-galli, and treated by dropping in chemical in the prescribed amount per 10 are using a pipette.
(§9) After treating for 30 days in a glass greenhouse at an average atmospheric temperature of 30° C., the herbicidal efficacy thereof was investigated.
(§10) Evaluation of herbicidal efficacy was carried out by comparing growth inhibition rate (%) with an untreated group, while evaluation of phytotoxicity was carried out by comparing growth inhibition rate (%) with the state of a complete eradication group, and were evaluated at 11 levels indicated below.

Chenopodium album [2] = assay: Weed foliar treatment test (Test Example 3); conditions: foliar spray at 1.0 to 2.0 leaf stage of Digitaria ciliaris, 3 weeks, 25° C.
Experimental: (§11) 3. Weed Foliar Treatment Test
(§12) Soil was filled into a 1/6000 are pot followed by seeding with Digitaria ciliaris, Chenopodium album and Amaranthus retroflexus, covering with soil, and cultivating in a glass greenhouse at an average atmospheric temperature of 25° C.
as §3, with “150” for “100”, “1.0” for “4.0”, “2.0” for “5.0”, “stage.” for “stage (plant height: 10 cm to 15 cm).”
(§13) After treating for 3 weeks in a glass greenhouse at an average atmospheric temperature of 25° C., the herbicidal efficacy thereof was investigated.
as §5

Amaranthus retroflexus [3] = assay: Weed foliar treatment test (Test Example 3); conditions: foliar spray at 1.0 to 2.0 leaf stage of Digitaria ciliaris, 3 weeks, 25° C.
Experimental: as §11, §12
as §3, with “150” for “100”, “1.0” for “4.0”, “2.0” for “5.0”, “stage.” for “stage (plant height: 10 cm to 15 cm).”
as §13, §5

Digitaria ciliaris [4] = assay: Weed foliar treatment test (Test Example 3); conditions: foliar spray at 1.0 to 2.0 leaf stage of Digitaria ciliaris, 3 weeks, 25° C.
Experimental: as §11, §12
as §3, with “150” for “100”, “1.0” for “4.0”, “2.0” for “5.0”, “stage.” for “stage (plant height: 10 cm to 15 cm).”
as §13, §5

Monochoria vaginalis = assay: Paddy herbicidal activity test; conditions: dropped into paddy water at 3.5 leaf stage of Echinochloa crus-galli, 30 days, 30° C., vs untreated group
Experimental: as §6, §7, §8, §9, §10

Scirpus juncoides = assay: Paddy herbicidal activity test; conditions: dropped into paddy water at 3.5 leaf stage of Echinochloa crus-galli, 30 days, 30° C., vs untreated group
Experimental: as §6, §7, §8, §9, §10

Echinochloa crus-galli = assay: Paddy herbicidal activity test; conditions: dropped into paddy water at 3.5 leaf stage of Echinochloa crus-galli, 30 days, 30° C., vs untreated group
Experimental: as §6, §7, §8, §9, §10

Chenopodium album [5] = assay: Farming soil treatment test; conditions: soil surface spray prior to weed growth, 30 days, 30° C.
Experimental: (§14) 2. Farming Soil Treatment Test Field soil was filled into a 1/6000 are pot followed by seeding with Digitaria ciliaris Chenopodium album and Amaranthus retroflexus and covering with soil. Wettable powders of compounds of formula (I) shown in Table 1 prepared in compliance with the preparation examples were diluted with water to the prescribed amount of chemical and uniformly sprayed onto each soil surface layer using 100 liters of sprayed water per 10 are prior to weed growth following seeding. After treating for 30 days in a glass greenhouse at an average atmospheric temperature of 30° C., the herbicidal efficacy thereof was investigated. Evaluation of herbicidal efficacy was carried out in the same manner as the above-mentioned Test Example 1.

Amaranthus retroflexus [6] = assay: Farming soil treatment test; conditions: soil surface spray prior to weed growth, 30 days, 30° C.
Experimental: as §14

Digitaria ciliaris [7] = assay: Farming soil treatment test; conditions: soil surface spray prior to weed growth, 30 days, 30° C.
Experimental: as §14

Structure (SMILES)	herbicidal efficacy, Galinsoga parviflora (Galinsoga parviflora)	herbicidal efficacy, Digitaria ciliaris (Digitaria ciliaris [1])	phytotoxicity, Oryza sativa (Oryza sativa; 1 g a.i./10 a)	phytotoxicity, Oryza sativa (Oryza sativa; 5 g a.i./10 a)	herbicidal efficacy, Chenopodium album (Chenopodium album [2]; 5 g a.i./10 a)	herbicidal efficacy, Chenopodium album (Chenopodium album [2]; 10 g a.i./10 a)	herbicidal efficacy, Amaranthus retroflexus (Amaranthus retroflexus [3]; 5 g a.i./10 a)	herbicidal efficacy, Amaranthus retroflexus (Amaranthus retroflexus [3]; 10 g a.i./10 a)	herbicidal efficacy, Digitaria ciliaris (Digitaria ciliaris [4]; 5 g a.i./10 a)	herbicidal efficacy, Digitaria ciliaris (Digitaria ciliaris [4]; 10 g a.i./10 a)	herbicidal efficacy, Monochoria vaginalis (Monochoria vaginalis; 1 g a.i./10 a)	herbicidal efficacy, Monochoria vaginalis (Monochoria vaginalis; 5 g a.i./10 a)	herbicidal efficacy, Scirpus juncoides (Scirpus juncoides; 1 g a.i./10 a)	herbicidal efficacy, Scirpus juncoides (Scirpus juncoides; 5 g a.i./10 a)	herbicidal efficacy, Echinochloa crus-galli (Echinochloa crus-galli; 1 g a.i./10 a)	herbicidal efficacy, Echinochloa crus-galli (Echinochloa crus-galli; 5 g a.i./10 a)	herbicidal efficacy, Chenopodium album (Chenopodium album [5]; 5 g a.i./10 a)	herbicidal efficacy, Chenopodium album (Chenopodium album [5]; 10 g a.i./10 a)	herbicidal efficacy, Amaranthus retroflexus (Amaranthus retroflexus [6]; 5 g a.i./10 a)	herbicidal efficacy, Amaranthus retroflexus (Amaranthus retroflexus [6]; 10 g a.i./10 a)	further results
COC(=O)Nc1c(C#N)cnn1-c1nn2c(c1Cl)CCCC2 [Compound 7]	10 (100%)	10 (100%)	1 (10% to less than 20%)	1 (10% to less than 20%)	10 (100%)	10 (100%)	10 (100%)	10 (100%)	10 (100%)	10 (100%)	10 (100%)	10 (100%)	9 (90% to less than 100%)	10 (100%)	10 (100%)	10 (100%)	9 (90% to less than 100%)	10 (100%)	10 (100%)	10 (100%)	herbicidal efficacy, Digitaria ciliaris (Digitaria ciliaris [7]; 5 g a.i./10 a): 10 (100%); herbicidal efficacy, Digitaria ciliaris (Digitaria ciliaris [7]; 10 g a.i./10 a): 10 (100%)
CCOC(=O)Nc1c([N+](=O)[O-])cnn1-c1nn2c(c1Cl)CCCC2 [Control agent 2.28, reference compound]	2 (20% to less than 30%)	1 (10% to less than 20%)	0 (0% to less than 10% (growth inhibition rate))	1 (10% to less than 20%)	6 (60% to less than 70%)	7 (70% to less than 80%)	3 (30% to less than 40%)	6 (60% to less than 70%)	2 (20% to less than 30%)	4 (40% to less than 50%)	3 (30% to less than 40%)	4 (40% to less than 50%)	1 (10% to less than 20%)	2 (20% to less than 30%)	1 (10% to less than 20%)	2 (20% to less than 30%)	4 (40% to less than 50%)	5 (50% to less than 60%)	3 (30% to less than 40%)	5 (50% to less than 60%)	herbicidal efficacy, Digitaria ciliaris (Digitaria ciliaris [7]; 5 g a.i./10 a): 1 (10% to less than 20%); herbicidal efficacy, Digitaria ciliaris (Digitaria ciliaris [7]; 10 g a.i./10 a): 2 (20% to less than 30%)
CCCOC(=O)Nc1c(C#N)cnn1-c1nn2c(c1Cl)CCCC2 [Compound 4]	10 (100%)	10 (100%)																			
CCOC(=O)Nc1c(C#N)cnn1-c1nn2c(c1Cl)CCCC2 [Compound 1, Ethyl N-(1-(3-chloro-4,5,6,7-tetrahydropyrazolo[1,5-a]pyridin-2-yl)-4-cyanopyrazol-5-yl) Carbamate]	10 (100%)	10 (100%)	1 (10% to less than 20%)	1 (10% to less than 20%)	10 (100%)	10 (100%)	10 (100%)	10 (100%)	10 (100%)	10 (100%)	10 (100%)	10 (100%)	10 (100%)	10 (100%)	10 (100%)	10 (100%)	10 (100%)	10 (100%)	10 (100%)	10 (100%)	herbicidal efficacy, Digitaria ciliaris (Digitaria ciliaris [7]; 5 g a.i./10 a): 10 (100%); herbicidal efficacy, Digitaria ciliaris (Digitaria ciliaris [7]; 10 g a.i./10 a): 10 (100%)
COC(=O)Nc1c(C#N)cnn1-c1nn2c(c1Cl)CCC2 [Compound 3]	10 (100%)	10 (100%)	1 (10% to less than 20%)	1 (10% to less than 20%)	10 (100%)	10 (100%)	10 (100%)	10 (100%)	10 (100%)	10 (100%)	10 (100%)	10 (100%)	9 (90% to less than 100%)	10 (100%)	10 (100%)	10 (100%)	9 (90% to less than 100%)	10 (100%)	10 (100%)	10 (100%)	herbicidal efficacy, Digitaria ciliaris (Digitaria ciliaris [7]; 5 g a.i./10 a): 10 (100%); herbicidal efficacy, Digitaria ciliaris (Digitaria ciliaris [7]; 10 g a.i./10 a): 10 (100%)
CCSC(=O)Nc1c(C#N)cnn1-c1nn2c(c1Cl)CCCC2 [Compound 11]	10 (100%)	10 (100%)																			
CC(C)COC(=O)Nc1c(C#N)cnn1-c1nn2c(c1Cl)CCCC2 [Compound 10]	10 (100%)	10 (100%)																			
